Where a name gives a salt, the structure may show the parent alone.
assay: in vitro; settings: rat, gh3-tre-luc cells, AC50 (uM) modified / 1000

Going from `CCCCCCCCCCCC[N+](C)(C)CC(=O)O` [N-(Alkyl C10-C16)-N,N-dimethylglycine betaine] to `CCCCCCCCCCCCC(=O)O` [Tridecanoic acid], the CC50 at 24 h rises from 79.2 µM to over 90 µM.

`CC/C(=C\C(=N/O)C(N)=O)C(C)[N+](=O)[O-]` (stereo not shown) [FR900409] and `CC(C)CCO` [Isopentyl alcohol] cannot be ordered by CC50 at 24 h: over 90 µM for the first, over 90 µM for the second.

`CC(C)[C@H](N)C(=O)OCCOCn1cnc2c(=O)[nH]c(N)nc21` [Valacyclovir hydrochloride] and `Nc1nc(NC2CC2)c2ncn([C@H]3C=C[C@@H](CO)C3)c2n1` [Abacavir] cannot be ordered by CC50 at 24 h: over 50 µM for the first, over 50 µM for the second.

Compared with `C#Cc1cccc(Nc2ncnc3cc(OCCOC)c(OCCOC)cc23)c1` [Erlotinib], `COc1cc(N)c(Cl)cc1C(=O)NC1CCN(CCCOc2ccc(F)cc2)CC1OC` (stereo not shown) [Cisapride] is lower in CC50 at 24 h: over 50 µM for the first, 13 µM for the second.

`C1=CC2C3C=CC(C3)C2C1` (stereo not shown) [Dicyclopentadiene] and `C[C@@]12CCC[C@H]1[C@@H]1CC[C@H]3C[C@@H](O)CC[C@]3(C)[C@H]1CC2` [5alpha-Androstan-3beta-ol] cannot be ordered by CC50 at 24 h: over 90 µM for the first, over 50 µM for the second.

`CC1=C(CC(=O)O)c2cc(F)ccc2/C1=C\c1ccc(S(C)(=O)=O)cc1` [Sulindac sulfone] and `O=C1c2ccccc2C(=O)c2cc(S(=O)(=O)O)ccc21` [Sodium 9,10-dioxo-9,10-dihydroanthracene-2-sulfonate] cannot be ordered by CC50 at 24 h: over 50 µM for the first, over 90 µM for the second.

`Cc1ccc(OC(=O)c2ccccc2O)cc1` [Salicylic acid p-tolyl ester] and `O=C(Oc1ccccc1C(=O)O)c1ccccc1O` [Salsalate] cannot be ordered by CC50 at 24 h: over 90 µM for the first, over 50 µM for the second.

`BrCc1ccc(Br)cc1` [4-Bromobenzyl bromide] and `O=Cc1ccc(F)cc1` [4-Fluorobenzaldehyde] cannot be ordered by CC50 at 24 h: over 90 µM for the first, over 90 µM for the second.

`COc1c2ccoc2cc2oc(=O)ccc12` [5-Methoxypsoralen] and `Cc1ccc2c(c1)C(=O)OC2=O` [4-Methylphthalic anhydride] cannot be ordered by CC50 at 24 h: over 90 µM for the first, over 90 µM for the second.

`Sc1nc2ccccc2s1` [2-Mercaptobenzothiazole] and `CNC(=O)c1ccccc1` [N-Methylbenzamide] cannot be ordered by CC50 at 24 h: over 50 µM for the first, over 90 µM for the second.

`CSC(=O)c1cccc2nnsc12` [Acibenzolar-S-methyl] and `CCC(C)OC(=O)c1ccc(O)cc1` (stereo not shown) [sec-Butylparaben] cannot be ordered by CC50 at 24 h: over 90 µM for the first, over 90 µM for the second.

`Cn1cc[n+](CCO)c1` [1-(2-Hydroxyethyl)-3-methylimidazolium chloride] and `COc1ccccc1NC(=O)CC(C)=O` [N-(2-Methoxyphenyl)-3-oxobutanamide] cannot be ordered by CC50 at 24 h: over 90 µM for the first, over 90 µM for the second.

`C=CCc1ccc(OC)c(OC)c1` [Methyleugenol] and `O=[N+]([O-])c1cccc(CCl)c1` [3-Nitrobenzyl chloride] cannot be ordered by CC50 at 24 h: over 90 µM for the first, over 90 µM for the second.

`C=CC(C)(C)C` [3,3-Dimethyl-1-butene] and `CC(=O)OC1CCCCC1C(C)(C)C` (stereo not shown) [2-tert-Butylcyclohexyl acetate] cannot be ordered by CC50 at 24 h: over 90 µM for the first, over 90 µM for the second.

`O=P(O)(O)OCC(O)CO` (stereo not shown) [Dipotassium glycerophosphate] and `OC[C@@H](O)[C@@H](O)CO` [Erythritol] cannot be ordered by CC50 at 24 h: over 50 µM for the first, over 90 µM for the second.

First: C=C1CC[C@H](O)C/C1=C/C=C1\CCC[C@]2(C)[C@@H]([C@H](C)CCCC(C)(C)O)CC[C@@H]12 [Calcifediol]
Second: CC1(C)CCC[C@]2(C)[C@H]3CC(=O)O[C@]3(C)CC[C@@H]12 [(3aR)-(+)-Sclareolide]
The CC50 at 24 h of the first is 5.6-fold lower: 11.5 µM for the first, 64.9 µM for the second.

`CCC1(CC)C(=O)NC(=O)NC1=O` [Sodium barbital] and `CCN[C@H]1C[C@H](C)S(=O)(=O)c2sc(S(N)(=O)=O)cc21` [Dorzolamide hydrochloride] cannot be ordered by CC50 at 24 h: over 90 µM for the first, over 50 µM for the second.

`Nc1c(Cl)cc(Cl)cc1Cl` [2,4,6-Trichloroaniline] and `Clc1ccc(Cl)c(Cl)c1Cl` [1,2,3,4-Tetrachlorobenzene] cannot be ordered by CC50 at 24 h: over 90 µM for the first, over 90 µM for the second.

First: Cl[C@H]1[C@H](Cl)[C@@H](Cl)[C@@H](Cl)[C@H](Cl)[C@H]1Cl [1,2,3,4,5,6-Hexachlorocyclohexane]
Second: CC[C@H](C)C(=O)O[C@H]1CCC=C2C=C[C@H](C)[C@H](CC[C@@H]3C[C@@H](O)CC(=O)O3)[C@H]21 [Mevastatin]
The CC50 at 24 h of the first is lower: 45.8 µM for the first, over 50 µM for the second.

First: CCC(C)(NC(=O)c1cc(Cl)c(C)c(Cl)c1)C(=O)CCl (stereo not shown) [Zoxamide]
Second: COC(=O)c1ccccc1S(=O)(=O)NC(=O)N(C)c1nc(C)nc(OC)n1 [Tribenuron-methyl]
The CC50 at 24 h of the first is lower: 15 µM for the first, over 100 µM for the second.

`C[Si](C)(C)O[Si](C)(C)C` [Hexamethyldisiloxane] and `C[N+](C)(C)CCOC(N)=O` [Carbachol] cannot be ordered by CC50 at 24 h: over 90 µM for the first, over 50 µM for the second.

`O=C1CCCCCCCCCCCN1` [Azacyclotridecan-2-one] and `CCNC1(c2cccs2)CCCCC1=O` (stereo not shown) [Tiletamine hydrochloride] cannot be ordered by CC50 at 24 h: over 90 µM for the first, over 20 µM for the second.

`SCCc1cnccn1` [Pyrazineethanethiol] and `CCO[Si](CCCS)(OCC)OCC` [3-(Triethoxysilyl)propane-1-thiol] cannot be ordered by CC50 at 24 h: over 90 µM for the first, over 90 µM for the second.

Compared with `O=S(=O)(O)Oc1ccc(C(c2ccc(OS(=O)(=O)O)cc2)c2ccccn2)cc1` [Picosulfate sodium], `COc1ccc2c(c1)OC(C)(C)C(c1ccccc1)C2c1ccc(OCCN2CCCC2)cc1` (stereo not shown) [Ormeloxifene] is lower in CC50 at 24 h: over 50 µM for the first, 6.42 µM for the second.

`CC1(C)N=C(N)N=C(N)N1c1ccc(Cl)cc1` [Cycloguanil hydrochloride] and `Nc1ccc(Cl)c(N)c1` [4-Chloro-1,3-diaminobenzene] cannot be ordered by CC50 at 24 h: over 50 µM for the first, over 90 µM for the second.

`OCC(CO)(CBr)CBr` [Pentaerythritol dibromide] and `CC(CO)OC(C)CO` (stereo not shown) [Dipropylene glycol] cannot be ordered by CC50 at 24 h: over 90 µM for the first, over 90 µM for the second.

First: CO/N=C(/C1=NOCCO1)c1ccccc1Oc1ncnc(Oc2ccccc2Cl)c1F [Fluoxastrobin]
Second: Cc1ccccc1/N=N/c1ccc(/N=N/c2c(O)ccc3ccccc23)c(C)c1 [C.I. Solvent Red 24]
The CC50 at 24 h of the first is lower: 32.7 µM for the first, over 50 µM for the second.

`CCOC(=O)[C@H](CCc1ccccc1)N[C@@H](C)C(=O)N1[C@H](C(=O)O)C[C@@H]2CCC[C@@H]21` [Ramipril] and `O=C(Nc1ccccc1)N(Cc1ccc(Cl)cc1)C1CCCC1` [Pencycuron] cannot be ordered by CC50 at 24 h: over 50 µM for the first, 54.7 µM for the second.

`Nc1ccc2cc(S(=O)(=O)O)cc(O)c2c1` [6-Amino-4-hydroxynaphthalene-2-sulfonic acid] and `CC1=NN(c2ccc(S(=O)(=O)O)cc2)C(=O)C1` [4-(3-Methyl-5-oxo-4,5-dihydro-1H-pyrazol-1-yl)benzenesulfonic acid] cannot be ordered by CC50 at 24 h: over 90 µM for the first, over 90 µM for the second.

Compared with `O=C(N/N=C/c1ccc([N+](=O)[O-])o1)c1cc([N+](=O)[O-])cc([N+](=O)[O-])c1O` [Nifursol], `O=C(O)c1cc2ccccc2c(Cc2c(O)c(C(=O)O)cc3ccccc23)c1O` [Pamoic acid] is higher in CC50 at 24 h: 32.5 µM for the first, over 50 µM for the second.

`CCN(CC)CCOc1ccc(-c2nc3cc(Cl)ccc3s2)cc1` [Halethazole hydrochloride] and `OCCN1CCN(CC/C=C2/c3ccccc3Sc3ccc(Cl)cc32)CC1` [Zuclopenthixol dihydrochloride] are within 1.5-fold of each other in CC50 at 24 h: 8.14 µM for the first, 8.55 µM for the second.

`CC(C)CCCCCCCOC(=O)c1ccccc1C(=O)OCCCCCCCC(C)C` [Diisodecyl phthalate] and `CC/C=C/CCCCCCCCCCOC(C)=O` [(E)-11-Tetradecen-1-ol acetate] cannot be ordered by CC50 at 24 h: over 90 µM for the first, over 90 µM for the second.

`CC(C)(N=C=O)c1cccc(C(C)(C)N=C=O)c1` [1,3-Bis(2-isocyanato-2-propyl)benzene] and `CNC(=NCCSCc1csc(N=C(N)N)n1)NC#N` [Tiotidine] cannot be ordered by CC50 at 24 h: 78.6 µM for the first, over 50 µM for the second.

`C#C[C@]1(OC(C)=O)CC[C@H]2[C@@H]3CCC4=CC(=O)CC[C@@H]4[C@H]3CC[C@@]21C` [Norethindrone acetate] and `CC(C)C1CCC(O)CC1` (stereo not shown) [4-Isopropylcyclohexanol] cannot be ordered by CC50 at 24 h: over 50 µM for the first, over 90 µM for the second.

`CCCCCCOC(=O)CCCCC` [Hexyl hexanoate] and `CCCCC(CC)COC(=O)CCCCCCCC(=O)OCC(CC)CCCC` (stereo not shown) [Bis(2-ethylhexyl) nonanedioate] cannot be ordered by CC50 at 24 h: over 90 µM for the first, over 90 µM for the second.

`COCCOCCOCCOCCO` [2,5,8,11-Tetraoxatridecan-13-ol] and `SCCCCCCCCS` [1,8-Octanedithiol] cannot be ordered by CC50 at 24 h: over 90 µM for the first, over 90 µM for the second.

First: CN1C(=O)COc2c(C(=O)NC3CN4CCC3CC4)cc(Cl)cc21 (stereo not shown) [Azasetron]
Second: C=CCSSCCC [Allyl propyl disulfide]
The CC50 at 24 h of the first is lower: 42.1 µM for the first, over 90 µM for the second.

same assay, conditions: rat, gh3-tre-luc cells, AC50 (uM) modified / 1000, Tox21_110001=Tox21_112826; viability, 1 nM T3 present, 24 h

`C[C@H]1[C@@H]2Cc3ccc(O)cc3[C@@]1(C)CCN2C` [(+)-Metazocine fumarate (2:1)] gave a CC50 at 24 h of over 200 µM.

same assay, conditions: rat, gh3-tre-luc cells, AC50 (uM) modified / 1000, Tox21_110001=Tox21_200191; viability, 1 nM T3 present, 24 h

For `CN(C)c1ccc(N)cc1` [N,N-Dimethyl-p-phenylenediamine], the CC50 at 24 h was 59.3 µM.

same assay, conditions: rat, gh3-tre-luc cells, AC50 (uM) modified / 1000, Tox21_110001=Tox21_200689; viability, 1 nM T3 present, 24 h

Molecule `C[C@]12CC[C@H]3[C@@H](CCC4=CC(=O)CC[C@@]43C)[C@@H]1CC[C@@H]2O` [Testosterone] has a CC50 at 24 h of over 90 µM.

same assay, conditions: rat, gh3-tre-luc cells, AC50 (uM) modified / 1000, Tox21_110001=Tox21_201151; viability, 1 nM T3 present, 24 h

`N#C/C=C/C#N` [Fumaronitrile] showed a CC50 at 24 h of 49.9 µM.

same assay, conditions: rat, gh3-tre-luc cells, AC50 (uM) modified / 1000, Tox21_110001=Tox21_201157; viability, 1 nM T3 present, 24 h

Work on `CC(C)CC(C)N` (stereo not shown) [1,3-Dimethylbutylamine] yielded a CC50 at 24 h of over 90 µM.

same assay, conditions: rat, gh3-tre-luc cells, AC50 (uM) modified / 1000, Tox21_110001=Tox21_300595; viability, 1 nM T3 present, 24 h

`O=C(O)C(F)(F)C(F)(F)C(F)(F)C(F)(F)C(F)(F)C(F)(F)C(F)(F)F` [Ammonium perfluorooctanoate] showed a CC50 at 24 h of over 90 µM.

same assay, conditions: rat, gh3-tre-luc cells, AC50 (uM) modified / 1000, Tox21_110001=Tox21_301050; viability, 1 nM T3 present, 24 h

Work on `C[C@H]1[C@H](c2ccc(Cl)cc2)SC(=O)N1C(=O)NC1CCCCC1` [Hexythiazox] yielded a CC50 at 24 h of 67.8 µM.

same assay, conditions: rat, gh3-tre-luc cells, AC50 (uM) modified / 1000, Tox21_110001=Tox21_301565; viability, 1 nM T3 present, 24 h

Molecule `O=C1c2ccccc2C(=O)C1C(=O)C(c1ccccc1)c1ccc(Cl)cc1` (stereo not shown) [Chlorophacinone] has a CC50 at 24 h of 42.3 µM.
